Experiment [1] has as its target T1, kisspeptin receptor (Mus musculus, UniProt Q91V45).
T1 construct: Paired rat or mouse atria; from tissue; host or cells: mouse paired atria, wild type
The experiment in a line: Inotropic activity in mouse paced atria, wild type (Kiss1r ^+/+). To be noted: % of CaCl2 maximum (8.95 mM final), mean ± SEM, n = 6, read-out: Emax (maximum positive inotropic response). As to the method:
(§1) Paired rat or mouse atria, or 4 mm strips of human atrial appendage, were mounted in 10 ml organ baths containing oxygenated Krebs solution at 37°C as described previously. Tension on the tissue was adjusted to 50% of that at which the maximum force was generated and then paced at 1 Hz, square-wave pulse, 5 ms duration, with the voltage just above threshold (<4.0 V). […] Experiments were terminated by the addition of 6.7 mM CaCl2 (final bath concentration 8.95 mM) and responses expressed as a % of this CaCl2 maximum.
(§2) Radioligand binding study data were analyzed using the iterative, non-linear curve fitting programs EBDA and LIGAND in the KELL package (Biosoft, Cambridge, UK). Pooled KD, BMAX and Hill slopes (nH) were expressed as mean±SEM and normalized to protein concentrations. In vitro pharmacology data agonist responses were expressed as %CaCl2 response in the paced atrial tissues and %KCl in the vasoconstrictor studies and data were fitted to a four parameter logistic equation using an iterative curve-fitting program (FigSys, Biosoft, Cambridge, UK) to obtain values for potency (pD2: the negative logarithm to the base 10 of the EC50) and maximum response (EMAX: %CaCl2 or %KCl, respectively) expressed as mean±SEM. Where appropriate, values were compared by one-way analysis of variance (ANOVA). […]

For experiment [2] the following is noted: ref [47]; cited from earlier work.
Another experiment deals with Kiss1r ^−/− atria. The experiment in a line: Inotropic activity in atria of mice with targeted disruption of Kiss1r. On the set-up: species or system mouse. As to the method:
as §1, §2

The target in experiment [3] is kisspeptin receptor (Rattus norvegicus, UniProt Q924U1). Nature of the experiment: Inotropic activity in rat paced paired atria. The arrangement: Paired rat or mouse atria; from tissue; host or cells: rat paired atria. The protocol:
(§3) Paired rat or mouse atria, or 4 mm strips of human atrial appendage, were mounted in 10 ml organ baths containing oxygenated Krebs solution at 37°C as described previously. […] Experiments were terminated by the addition of 6.7 mM CaCl2 (final bath concentration 8.95 mM) and responses expressed as a % of this CaCl2 maximum. Radioligand binding study data were analyzed using the iterative, non-linear curve fitting programs EBDA and LIGAND in the KELL package (Biosoft, Cambridge, UK). Pooled KD, BMAX and Hill slopes (nH) were expressed as mean±SEM and normalized to protein concentrations. […] Where appropriate, values were compared by one-way analysis of variance (ANOVA). In all cases P<0.05 was considered statistically significant and n-values were the number of animals or patients from which data were obtained.

For experiment [4], the system named is endothelium-denuded rat aortic rings. Nature of the experiment: Vasoconstrictor activity in endothelium-denuded rat aorta. To be noted: mean ± SEM, ET-1 n = 7, KP-10 tissues from 4 animals, KP-54 tissues from 3 animals. As to the method:
Rat thoracic aorta was cleaned of connective tissue and cut into 4 mm rings and the endothelial layer removed by gentle rubbing. Tissues were set to a basal tension at which the maximum response to 100 mM KCl was generated and subsequent responses to kisspeptins were expressed as % of this KCl response. Aortic rings were then contracted with 10 µM phenylephrine and 1 µM ACh was added; a reduction in the phenylephrine response of <10% was taken as evidence of removal of endothelium. […] Experiments were terminated by the addition of 100 mM KCl and agonist responses were expressed as a % of this KCl maximum.
Radioligand binding study data were analyzed using the iterative, non-linear curve fitting programs EBDA and LIGAND in the KELL package (Biosoft, Cambridge, UK). Pooled KD, BMAX and Hill slopes (nH) were expressed as mean±SEM and normalized to protein concentrations. In vitro pharmacology data agonist responses were expressed as %CaCl2 response in the paced atrial tissues and %KCl in the vasoconstrictor studies and data were fitted to a four parameter logistic equation using an iterative curve-fitting program (FigSys, Biosoft, Cambridge, UK) to obtain values for potency (pD2: the negative logarithm to the base 10 of the EC50) and maximum response (EMAX: %CaCl2 or %KCl, respectively) expressed as mean±SEM. Where appropriate, values were compared by one-way analysis of variance (ANOVA). In all cases P<0.05 was considered statistically significant and n-values were the number of animals or patients from which data were obtained.

The target of experiment [5] is T2, kisspeptin receptor (Homo sapiens, UniProt Q969F8).
T2 construct: cryostat-cut sections of human (15 µm) or rat (10 µm) heart; from tissue; host or cells: human right atria (control, dilated cardiomyopathy, ischaemic heart disease), cryostat sections
The experiment in a line: Inotropic activity in human paced atrial strips. The note with it: human atrial strips. As to the method:
as §3

In experiment [6] the test system is human coronary artery and umbilical vein. The note with it: ref [31]; cited from earlier work. The text has this:
We have recently identified a further role for kisspeptin as a vasoactive peptide. We detected kisspeptin and kisspeptin receptor expression in human vasculature, and intriguingly found this to be restricted to the aorta, coronary artery and umbilical vein, vessels with the same developmental origin. […] However, to our knowledge, a cardiac role of kisspeptin has not yet been investigated in man, nor any cardiovascular effects ...

Entries after “also recorded” stand apart in the source; their conditions may differ. Where no end group is shown, it is not given here.

Chain of kisspeptin receptor (Rattus norvegicus, UniProt Q924U1) (Q924U1 whole entry): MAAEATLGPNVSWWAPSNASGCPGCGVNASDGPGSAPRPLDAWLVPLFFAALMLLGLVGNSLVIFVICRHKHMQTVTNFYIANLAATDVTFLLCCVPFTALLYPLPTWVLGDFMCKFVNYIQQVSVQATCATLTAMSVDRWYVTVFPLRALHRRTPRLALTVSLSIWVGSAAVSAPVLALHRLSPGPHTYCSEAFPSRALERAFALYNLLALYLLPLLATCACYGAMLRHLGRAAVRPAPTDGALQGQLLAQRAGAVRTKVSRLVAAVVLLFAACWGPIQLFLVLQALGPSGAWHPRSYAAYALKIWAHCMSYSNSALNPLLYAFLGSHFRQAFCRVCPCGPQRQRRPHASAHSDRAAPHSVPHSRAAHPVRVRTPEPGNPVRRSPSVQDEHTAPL
T2 sequence (Q969F8 whole entry): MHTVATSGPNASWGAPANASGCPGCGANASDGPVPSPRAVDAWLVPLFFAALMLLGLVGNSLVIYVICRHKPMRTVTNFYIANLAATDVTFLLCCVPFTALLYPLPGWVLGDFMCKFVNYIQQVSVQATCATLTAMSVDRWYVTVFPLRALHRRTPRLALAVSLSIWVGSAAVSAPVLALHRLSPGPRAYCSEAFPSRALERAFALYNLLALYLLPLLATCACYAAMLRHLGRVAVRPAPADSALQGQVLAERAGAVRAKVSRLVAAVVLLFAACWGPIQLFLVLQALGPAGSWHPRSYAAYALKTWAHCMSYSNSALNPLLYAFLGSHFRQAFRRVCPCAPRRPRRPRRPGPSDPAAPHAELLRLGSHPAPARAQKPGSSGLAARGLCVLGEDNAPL
T1 sequence (Q91V45 whole entry): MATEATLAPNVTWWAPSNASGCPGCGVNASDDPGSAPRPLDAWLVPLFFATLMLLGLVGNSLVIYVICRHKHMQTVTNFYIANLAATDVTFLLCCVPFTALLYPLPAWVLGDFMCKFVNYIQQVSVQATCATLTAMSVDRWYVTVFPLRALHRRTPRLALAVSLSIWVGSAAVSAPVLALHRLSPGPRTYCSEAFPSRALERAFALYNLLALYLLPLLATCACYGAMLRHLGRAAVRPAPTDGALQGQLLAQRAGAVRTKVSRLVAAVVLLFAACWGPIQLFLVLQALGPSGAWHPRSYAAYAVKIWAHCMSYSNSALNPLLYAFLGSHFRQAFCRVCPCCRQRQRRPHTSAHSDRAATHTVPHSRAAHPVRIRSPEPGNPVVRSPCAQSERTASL

`CC[C@H](C)[C@H](NC(=O)[C@H](CCC(N)=O)NC(=O)[C@H](CCCNC(=N)N)NC(=O)[C@H](CO)NC(=O)[C@H](Cc1c[nH]cn1)NC(=O)[C@@H]1CCCN1C(=O)[C@H](C)NC(=O)[C@H](CO)NC(=O)[C@H](CC(C)C)NC(=O)CNC(=O)[C@@H]1CCCN1C(=O)[C@H](CCC(N)=O)NC(=O)[C@H](CCC(N)=O)NC(=O)[C@H](CCCNC(=N)N)NC(=O)[C@H](CO)NC(=O)CNC(=O)[C@H](CO)NC(=O)[C@H](CO)NC(=O)[C@H](CCC(=O)O)NC(=O)[C@@H]1CCCN1C(=O)[C@@H]1CCCN1C(=O)[C@@H]1CCCN1C(=O)[C@H](CO)NC(=O)[C@H](CC(C)C)NC(=O)[C@H](CO)NC(=O)[C@@H](NC(=O)CN)[C@@H](C)O)C(=O)N1CCC[C@H]1C(=O)N[C@@H](C)C(=O)N1CCC[C@H]1C(=O)N[C@@H](CCC(N)=O)C(=O)NCC(=O)N[C@@H](C)C(=O)N[C@H](C(=O)N[C@@H](CC(C)C)C(=O)N[C@H](C(=O)N[C@@H](CCC(N)=O)C(=O)N[C@@H](CCCNC(=N)N)C(=O)N[C@@H](CCC(=O)O)C(=O)N[C@@H](CCCCN)C(=O)N[C@@H](CC(=O)O)C(=O)N[C@@H](CC(C)C)C(=O)N1CCC[C@H]1C(=O)N[C@@H](CC(N)=O)C(=O)N[C@@H](Cc1ccc(O)cc1)C(=O)N[C@@H](CC(N)=O)C(=O)N[C@@H](Cc1c[nH]c2ccccc12)C(=O)N[C@@H](CC(N)=O)C(=O)N[C@@H](CO)C(=O)N[C@@H](Cc1ccccc1)C(=O)NCC(=O)N[C@@H](CC(C)C)C(=O)N[C@@H](CCCNC(=N)N)C(=O)N[C@@H](Cc1ccccc1)C(N)=O)C(C)C)C(C)C` [KP-54]: the Emax on kisspeptin receptor [1] turned out to be 26 ± 4%; at kisspeptin receptor [3] (read-out: EMAX (maximum positive inotropic response)), 14 ± 2%; on kisspeptin receptor [5] (% of CaCl2 maximum (8.95 mM final), mean ± SEM, n = 5, read-out: EMAX (maximum positive inotropic response)), 82 ± 13%. For the same compound, the anti-angiogenic activity result in experiment [2] is “anti-angiogenic”. The “inotropic response in Kiss1r ^−/− atria” value with Kiss1r ^−/− atria is recorded as “lack of effect; also recorded: no inotropic response”. The lusitropic effects result at kisspeptin receptor [3] (rat atria, half time to peak force and half time to relaxation) is given as “Lusitropic effects were not observed”; on kisspeptin receptor [5] (half time to peak force and half time to relaxation), “Lusitropic effects were not observed”. Further, in experiment [4] (% of 100 mM KCl maximum, endothelium-denuded rat aorta), the “EMAX (maximum vasoconstrictor response)” value amounted to 97±1 % KCl. Further, the “pD2 (vasoconstriction)” value in experiment [4] (endothelium-denuded rat thoracic aortic rings, KP-10, KP-54 10^−12–3×10^−9 M, ET-1 10^−10–3×10^−7 M) came to 10.47±0.26.

Turning to “kisspeptin: Kisspeptin, or KP-54; also used generically for the endogenous peptides and kisspeptin-like immunoreactivity (GTSLSPPPESSGSPQQPGLSAPHSRQIPAPQGAVLVQREKDLPNYNWNSFGLRF; ends and bridges not checked; UniProt Q15726 68-121, looked up)”, in experiment [6], the vasoconstrictor activity result is “potent vasoconstrictor”. Further, the “inotropic response in Kiss1r ^−/− atria” value with Kiss1r ^−/− atria was “No response”.

Values taken from article PMC3222648, “Inotropic Action of the Puberty Hormone Kisspeptin in Rat, Mouse and Human: Cardiovascular Distribution and Characteristics of the Kisspeptin Receptor” (PLoS ONE, 2011).
